Test results: patent US6579903B2, “Klainetins and their derivatives, method for their preparation and use thereof” (Aventis Pharma Deutschland GmbH, priority 2000, dated 2003)

What was measured:
[1] = Stability (characterization); format: physicochemical
[2] = biological target: Cyclin D1/CDK4 (Homo sapiens, UniProt P11802); assay: CDK4 kinase inhibition, FlashPlate phosphorylation of peptide substrate; format: biochemical; settings: purified enzyme, 2 μM ATP, room temperature
Procedure: (§1) The cytostatic activities were determined by using purified enzymes in 384-well microtiter plates (coated FlashPlates, NEN Life Science). The enzyme activities were determined by means of phosphorylation of specific peptide substrates. A klainetin dilution series prepared beforehand, with concentrations of 100, 50, 25, 12.5, 6.25, 3.125, 1.5625, 0.7813, 0.3906, 0.195, 0.094, 0.047 and 0 μM, were pipetted into the wells in the appropriate order. The reaction mixture (radiolabeled ATP, buffer solution pH 7.4 and enzyme solutions) was then added followed by incubation at room temperature for 1 h.
Description of CDK4 reaction mixture:
Kinase buffer: 50 mM HEPES, 10 mM MgCl2, 2.5 mM EGTA pH8.0, 10 mM β-glycerol phosphate, 1 mM orthovanadate, 1 mM sodium fluoride, and 1 mM DTT
Biotinylated peptide substrate for FlashPlate coating (1 mg/ml solution in PBS buffer)
ATP solution: 100 μCi/ml 33P-γ-ATP and 10 μM ATP
Cyclin D1/CDK4 enzyme solution: 100 mg/ml in kinase buffer
Wash solution: 3% phosphoric acid
30 μl of diluted klainetin solution, 20 μl of ATP/enzyme solution (final conc. 1 μCi 33P-γ-ATP, 2 μM ATP and 1 μg of enzyme) […]
(§2) The activity of the kinases (CDK4 or KDR) was meaured by incorporation of radioactive phosphate from ATP into the substrate and the inhibitory action of the klainetins (IC50) was calculated.

[3] = biological target: KDR (Homo sapiens, UniProt P35968); assay: KDR kinase inhibition, phosphorylation of PLCγ1 peptide substrate; format: biochemical; settings: purified enzyme, 5 μM ATP, room temperature 1 h
Procedure: as §1
Description of KDR reaction mixture:
Kinase buffer: 50 mM MOPS, pH7.4, 10 mM MgCl2, 2 mM DTT, 2.5 mM EGTA, 10 mM β-glycerol phosphate, 1 mM orthovanadate, and 1 mM sodium fluoride
ATP solution: 25 μCi/ml 33P-γ-ATP und 12.5 μM ATP
KDR enzyme solution: 3.5 μg/ml in kinase buffer
Wash solution: PBS (without Mg^2+, Ca^2+)
10 μl diluted klainetin solution
20 μl of enzyme solution (3.5 μg/ml; 70 ng/well)
20 μl of ATP solution (final concentration 0.5 μCi and 5 μM ATP/well)
Incubation at room temperature for 1 h, followed by washing 3× with 75 μl of wash solution and measurement in MicroBeta Counter (Wallac) for 30 sec.
as §2

[4] = biological target: CDK2 (Homo sapiens, UniProt P24941); assay: CDK2 kinase inhibition (IC50); format: biochemical; settings: purified enzyme
[5] = Solubility (characterization); format: physicochemical

Sequence of KDR (P35968 20-1356, species assumed): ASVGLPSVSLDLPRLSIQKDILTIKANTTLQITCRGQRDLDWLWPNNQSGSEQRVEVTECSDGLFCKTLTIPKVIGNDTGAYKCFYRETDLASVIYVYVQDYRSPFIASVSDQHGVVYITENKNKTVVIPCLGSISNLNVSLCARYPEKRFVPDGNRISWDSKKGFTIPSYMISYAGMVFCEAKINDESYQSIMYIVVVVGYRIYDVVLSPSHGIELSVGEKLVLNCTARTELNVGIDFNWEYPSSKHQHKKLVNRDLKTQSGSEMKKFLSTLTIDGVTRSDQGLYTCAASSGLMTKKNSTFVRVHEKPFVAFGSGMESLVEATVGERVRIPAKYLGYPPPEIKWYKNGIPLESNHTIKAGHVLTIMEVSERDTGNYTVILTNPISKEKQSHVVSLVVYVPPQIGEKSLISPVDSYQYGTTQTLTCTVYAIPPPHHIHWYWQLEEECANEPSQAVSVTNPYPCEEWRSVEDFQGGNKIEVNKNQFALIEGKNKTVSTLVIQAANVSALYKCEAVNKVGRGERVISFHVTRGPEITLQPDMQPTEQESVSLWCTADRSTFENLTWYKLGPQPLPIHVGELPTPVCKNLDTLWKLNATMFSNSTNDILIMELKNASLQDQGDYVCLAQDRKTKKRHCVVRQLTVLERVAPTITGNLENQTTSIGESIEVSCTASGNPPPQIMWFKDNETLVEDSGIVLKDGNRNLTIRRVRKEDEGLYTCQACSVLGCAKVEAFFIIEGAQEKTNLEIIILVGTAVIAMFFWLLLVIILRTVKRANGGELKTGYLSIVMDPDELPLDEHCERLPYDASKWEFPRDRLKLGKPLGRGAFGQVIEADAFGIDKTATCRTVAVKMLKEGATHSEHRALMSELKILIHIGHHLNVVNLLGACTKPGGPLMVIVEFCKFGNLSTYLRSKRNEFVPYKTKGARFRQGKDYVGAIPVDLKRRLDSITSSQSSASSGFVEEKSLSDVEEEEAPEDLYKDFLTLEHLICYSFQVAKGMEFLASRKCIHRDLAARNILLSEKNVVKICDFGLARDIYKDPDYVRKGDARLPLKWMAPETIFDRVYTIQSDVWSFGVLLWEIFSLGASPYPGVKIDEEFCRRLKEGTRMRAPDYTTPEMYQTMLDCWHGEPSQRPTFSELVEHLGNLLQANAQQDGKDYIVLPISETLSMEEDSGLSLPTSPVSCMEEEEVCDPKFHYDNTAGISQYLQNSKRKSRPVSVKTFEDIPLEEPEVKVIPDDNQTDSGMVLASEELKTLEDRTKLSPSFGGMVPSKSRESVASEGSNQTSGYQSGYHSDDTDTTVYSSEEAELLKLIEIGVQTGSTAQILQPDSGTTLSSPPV
Sequence of Cyclin D1/CDK4 (P11802 whole entry, species assumed): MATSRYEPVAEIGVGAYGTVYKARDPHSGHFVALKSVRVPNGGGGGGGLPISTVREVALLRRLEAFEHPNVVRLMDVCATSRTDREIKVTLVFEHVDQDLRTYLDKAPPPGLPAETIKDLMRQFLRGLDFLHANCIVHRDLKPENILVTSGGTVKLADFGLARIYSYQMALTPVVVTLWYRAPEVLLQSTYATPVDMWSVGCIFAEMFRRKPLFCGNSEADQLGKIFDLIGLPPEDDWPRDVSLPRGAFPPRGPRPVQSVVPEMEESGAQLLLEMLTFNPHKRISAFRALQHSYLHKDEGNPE
Sequence of Cyclin D1/CDK4 (P24385 whole entry partner, species assumed): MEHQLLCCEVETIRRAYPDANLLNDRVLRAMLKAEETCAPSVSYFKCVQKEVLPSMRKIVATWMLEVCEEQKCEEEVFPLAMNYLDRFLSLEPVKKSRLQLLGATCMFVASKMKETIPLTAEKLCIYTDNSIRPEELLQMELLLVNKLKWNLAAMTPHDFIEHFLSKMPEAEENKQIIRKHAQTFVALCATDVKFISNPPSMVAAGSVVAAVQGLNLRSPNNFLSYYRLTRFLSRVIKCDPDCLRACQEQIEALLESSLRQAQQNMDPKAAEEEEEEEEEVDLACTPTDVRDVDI

stability in the alkaline and strongly acidic range ([1]; alkaline and strongly acidic range)	stability in a neutral and mildly acidic environment [1]	IC50 [2] [µM]	IC50 [3] [µM]	IC50 [4] [µM]	solubility in polar organic solvents [5]	solubility in water [5]	stability in the alkaline range ([1]; alkaline range)	Structure (SMILES)
unstable	stable	2.09	6.96	21.5	soluble	only slightly soluble	–	COc1c(Cc2cccc(O)c2O)c(O)cc2c1C(=O)CC(c1ccccc1)O2 (centres unmarked) [Klainetin A, klainetin A]
–	stable	1.14	6.48	6.04	soluble	only slightly soluble	unstable	COc1cc(O)c(Cc2cccc(O)c2O)c(O)c1C(=O)/C=C/c1ccccc1 [Klainetin B, klainetin B]
